Common to all, as to type: cell-based
Experiment [1] relates to peptide substrates specific to tyrosine kinases. The experiment in a line: Kinase activity profiling, PamChip array, peptide substrates / other kinases. As to conditions: PDAC‐3 primary cells, IC50 concentration, 2 h, Pamgene array. As for the experimental part: (§1) A Kinase activity profiling was conducted using a PamChip (Pamgene, s‐Hertogenbosch, The Netherlands) array containing 144 peptide substrates specific to tyrosine kinases to assess activity changes upon treatment with compounds 1b and 1g. Experiments were carried out in PDAC3 cells, using biological triplicates comprising three untreated controls and three samples treated for 2 h with either compound at their respective 1 × IC50 concentrations, following protocols adapted from previous studies.^[ [38] ^] Protein concentrations were quantified using the Bio‐Rad protein assay, which is based on the Bradford method (Bio‐Rad, Hercules, CA). For chip loading, protein lysates were adjusted to a final concentration of 10 µg per array and combined with PamGene MasterMix. During the assay, samples were circulated through the array at 30 °C with one cycle per minute over 60 cycles. Fluorescence data acquisition was performed using a 12‐bit CCD camera, capturing real‐time fluorescence intensities. End‐point spot intensities were analyzed using the open‐source software ScanAnalyze, with background normalization applied. Statistical comparisons were performed using student's t‐test in R (version 3.6.1), followed by false discovery rate (FDR) correction.

A further experiment has as its system PATU‐T. The experiment in a line: Wound healing assay, PATU‐T. The conditions noted are these: 1 × IC50 and 4 × IC50, 4 to 24 h. As for the experimental part: The wound healing assay was used to test the migratory ability of the selected cells post‐treatment. Cells (5 × 10^4 /well) were seeded on 96‐well. After 24 h, cells reached the optimal 100% confluency, and an artificial wound was created with a 96‐well Pintool Scratcher. The cells were immediately washed with complete medium, in order to remove cell debris after the scratch, and images of the wells were captured at time 0 h, right before the addition of the treatment. Each drug (1b and 1g) was previously diluted in the respective medium at two different concentrations: 1 × IC50 and 4 × IC50 (according to the cell specific IC50 value) and were then added to the cells. Images were then taken at timepoints 4, 8, 20, and 24 h using the Leica microscope with a JAI TMC‐137 camera to assess wound closure. The images were analyzed using the Universal Grab 6.3 software (DCILabs), and the obtained data were used to determine the percentage of migration of the cells, using the following formula. (2) % Migration=Mean width of the wound atT=0−Mean width of the wound atT=X/Mean width of the wound atT=0×100

In a further experiment the target is CDK7 (Homo sapiens, UniProt P50613). The experiment in a line: Kinase activity profiling, PamChip array, CDK7. Further details: endogenous in cells; host or cells: PDAC3 primary cells. As to conditions: PDAC‐3 primary cells, IC50 concentration, 2 h, Pamgene array. As for the experimental part:
as §1

Consider one compound from PMC12503906, “Novel Pyrazolo [1,5‐a]−1,3,5‐Triazine Derivatives as CDK7 Inhibitors: Synthesis and Biological Insights in Pancreatic Ductal Adenocarcinoma Models” (Chemmedchem, 2025).

CDK7, sequence (P50613 2-346 limits assumed): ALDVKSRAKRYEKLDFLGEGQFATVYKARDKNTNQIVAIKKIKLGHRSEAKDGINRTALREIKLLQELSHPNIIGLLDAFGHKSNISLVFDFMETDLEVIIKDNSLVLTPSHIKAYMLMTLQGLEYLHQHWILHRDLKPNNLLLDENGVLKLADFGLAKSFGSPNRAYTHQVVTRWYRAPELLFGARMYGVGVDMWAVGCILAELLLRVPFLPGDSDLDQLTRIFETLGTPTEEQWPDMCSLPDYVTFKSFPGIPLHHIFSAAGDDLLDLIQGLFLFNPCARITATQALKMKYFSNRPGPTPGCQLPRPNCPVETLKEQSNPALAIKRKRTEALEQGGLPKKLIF
CDK7, sequence (P51946 whole entry partner): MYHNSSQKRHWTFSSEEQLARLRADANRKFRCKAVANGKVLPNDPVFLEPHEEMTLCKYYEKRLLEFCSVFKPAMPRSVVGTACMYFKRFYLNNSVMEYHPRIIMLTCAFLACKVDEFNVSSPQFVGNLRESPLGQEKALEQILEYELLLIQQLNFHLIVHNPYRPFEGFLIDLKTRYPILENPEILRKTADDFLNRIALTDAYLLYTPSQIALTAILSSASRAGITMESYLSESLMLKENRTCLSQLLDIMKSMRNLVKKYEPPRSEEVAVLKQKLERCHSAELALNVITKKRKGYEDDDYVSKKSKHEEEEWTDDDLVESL
CDK7, sequence (P51948 whole entry partner): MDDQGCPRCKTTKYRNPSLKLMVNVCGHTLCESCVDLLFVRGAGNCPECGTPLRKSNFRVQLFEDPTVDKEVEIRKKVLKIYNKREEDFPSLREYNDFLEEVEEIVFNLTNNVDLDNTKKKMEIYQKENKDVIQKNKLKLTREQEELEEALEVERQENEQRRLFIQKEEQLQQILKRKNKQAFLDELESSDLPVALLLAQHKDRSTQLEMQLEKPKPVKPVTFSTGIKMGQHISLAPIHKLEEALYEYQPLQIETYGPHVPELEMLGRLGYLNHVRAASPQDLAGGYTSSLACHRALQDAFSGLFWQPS

`Nc1ncnc2cc(-c3c[nH]c4ccc(Br)cc34)nn12` [Compound 1b, 7‐(5‐Bromo‐1H‐indol‐3‐yl)pyrazolo[1,5‐a][1,3,5]triazin‐4‐amine]: in experiment [1], the “inhibition of the other kinases (other than CDK7)” value is recorded as “below 50%”. Further, the “inhibition of cell migration” value in the experiment on PATU‐T was “greatest inhibitory effect”. Further, at CDK7, the “inhibition of phosphorylation, CDK7 (decrease vs untreated controls)” value is listed as 70%.
